“Also recorded” adds a separate entry of the source.
Assays:
[1] = tested on: acute slices of rat retinal and brain tissue; assay: Multi-electrode array electrophysiological screen for neuroprotection against kainate- or NMDA-induced death; format: cell-based; details: 30 uM; pretreatment, or cotreatment with an NMDA receptor agonist; slices perfused about 30 min with NMDA or kainate agonists
Description: One aspect of the present invention usefully employs electrophysiological screening of Structure 1. Particular attention is drawn to an electrophysiological assay that rapidly screens for compounds which are inhibitors that target neuron-specific PDZ domains. Recordings of cellular activity were made from acute slices of rat retinal and brain tissue to examine the effects of Structure 1 on synaptic Kainate/AMPA, NMDARs and to test for protection against excitotoxic insults. Kainate/AMPA and NMDAR components were distinguished pharmacologically. Noted are the selective AMPA-antagonist NBQX and the competitive NMDA-antagonist CPP. A multi-electrode array was used that enabled examination of activity from sixty neurons simultaneously. This array addressed whether a test compound provided neuroprotection against kainate or N-methyl-D-aspartic acid (NMDA)-induced death. Briefly, slices were perfused for prolonged periods (about 30 min) with NMDA or kainate agonists until activity in half of the neurons is lost and responses cannot be rescued by washing out the NMDA or kainate (assumed to be resulting from neuronal death).

[2] = tested on: hippocampal neurons; assay: Excitotoxic insult in hippocampal neurons (loss of functional activity); format: cell-based; details: co-application with excitotoxic insult
Description: This loss was prevented by the co-application of the compound of Structure 1. Results were confirmatory of the retinal data and extends it into tissues that are more strongly associated with CNS disorders such as Stroke and neurodegenerative diseases. Noted is therapeutic treatment for autism disorders and cognitive decline symptomatology conditions.

[3] = Uptake in the retina after intravitreal injection of fluorescently tagged compound; format: in vivo
Description: Uptake in the retina was observed as follows. […] In numerous populations of retinal neurons located in both the ganglion cell (GCL) and inner nuclear layers.

[4] = Intrathecal injection in rats, distribution in spinal cord and brain; format: in vivo
Method: Intrathecal injection of Structure 1 compound in rats was tested. Rats were prepped for intrathecal injection containing 16 nmol of Structure 1 compound at the level of CV2. 24 hrs following the injection the rats were perfused with 4% PFA and frozen cross-sections of the cord were mounted on glass slides and photographed.

[5] = tested on: ischemic episode; assay: Therapeutic protocol in stroke (Example 2); format: in vivo, human; details: 50 mg/Kg i.v. within 2 hours of onset; outcome within 48 hours; person
Method: A person presents with an ischemic episode resulting sudden numbness the face, and left arm, confusion, and trouble speaking. […] Doses of from about 1 to about 100 mg/Kg are noted.

[6] = rats, 16 nmol intrathecal at CV2, 24 hrs after injection

Substance: CONH2-(Arg)7-Cys-Cys-Lys-Asn-Tyr-Lys-c[-Lys-Thr-Glu(βAla)Val [Structure 1]
- prevention of neuronal death / cell death [1]: provided efficacy and potency in preventing neuronal death; also recorded: prevented cell death
- permanent loss of functional activity after excitotoxic insult [2]: prevented
- uptake pattern in retina ([3]; 1.5-6 nmol, 6 hrs following intravitreal injection): ~50%
- accumulation within ganglion cell axons ([3]; intravitreal injection, labeling at the optic nerve head): selectively accumulated within ganglion cell axons
- crossing of vitreal/retina barrier ([3]; tagged with a fluorescent marker, administered intravitrealy): crossed the vitreal/retina barrier
- accumulation in brain regions after cervical intrathecal injection [4, 6]: accumulate in cells located in the cortex, hippocampus, brainstem and striatum
- crossing of pia mater/brain barrier and accumulation in spinal cord neurons [4, 6]: crosses the pia mater/brain barrier and selectively accumulates in neurons located within the gray matter of the cord
- crossing of pia mater/brain barrier ([4]; tagged with a fluorescent marker, localizes in neurons within retina, spinal cord and brain): readily cross the pia mater/brain barrier
- patient outcome after ischemic episode [5]: recovers without significant brain damage
